Consider four compounds from US20240252454A1, “COMPOSITION COMPRISING AN INHIBITOR OF MITOCHONDRIAL TRANSCRIPTION” (LEAD DISCOVERY CENTER GMBH, priority 2021, published 2024).

What all share (test): SRB assay, IMT combined with inhibitor
What all share (assay type): cell-based

The test system of one assay is SKOV3. The conditions noted are these: SKOV3 (ovary); concentration series of the labelled inhibitor + fixed concentration of IMT (3S)-1-[(2R)-2-[4-(2-chloro-4-fluoro-phenyl)-2-oxo-chromen-7-yl]oxypropanoyl]piperidine-3-carboxylic acid (Table 3: 40 nM, 120 h); negative=synergistic, positive=antagonistic. The essentials: (§1)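 Cells are grown at near-physiological glucose (5 mM) and given a dilution series of a MAPK signalling pathway SOC plus 40 nM (3S)-1-[(2R)-2-[4-(2-chloro-4-fluoro-phenyl)-2-oxo-chromen-7-yl]oxypropanoyl]piperidine-3-carboxylic acid held constant. After 120 h, biomass is quantified with sulforhodamine B.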

Another assay has as its system GRANTA-519. The settings on record: GRANTA-519 (hematological); concentration series of the labelled inhibitor + fixed concentration of IMT (3S)-1-[(2R)-2-[4-(2-chloro-4-fluoro-phenyl)-2-oxo-chromen-7-yl]oxypropanoyl]piperidine-3-carboxylic acid (Table 3: 40 nM, 120 h); negative=synergistic, positive=antagonistic. The essentials:
as §1

Another assay relates to LOVO. The settings on record: LOVO (colon); concentration series of the labelled inhibitor + fixed concentration of IMT (3S)-1-[(2R)-2-[4-(2-chloro-4-fluoro-phenyl)-2-oxo-chromen-7-yl]oxypropanoyl]piperidine-3-carboxylic acid (Table 3: 40 nM, 120 h); negative=synergistic, positive=antagonistic. The essentials:
as §1

Another assay deals with SKMEL5. The settings on record: SKMEL5 (skin); concentration series of the labelled inhibitor + fixed concentration of IMT (3S)-1-[(2R)-2-[4-(2-chloro-4-fluoro-phenyl)-2-oxo-chromen-7-yl]oxypropanoyl]piperidine-3-carboxylic acid (Table 3: 40 nM, 120 h); negative=synergistic, positive=antagonistic. A digest of the protocol: as §1
The test system of another assay is HCT15. The conditions noted are these: HCT15 (colon); concentration series of the labelled inhibitor + fixed concentration of IMT (3S)-1-[(2R)-2-[4-(2-chloro-4-fluoro-phenyl)-2-oxo-chromen-7-yl]oxypropanoyl]piperidine-3-carboxylic acid (Table 3: 40 nM, 120 h); negative=synergistic, positive=antagonistic. The essentials:
as §1

Another assay deals with HCT116. The settings on record: HCT116 (colon); concentration series of the labelled inhibitor + fixed concentration of IMT (3S)-1-[(2R)-2-[4-(2-chloro-4-fluoro-phenyl)-2-oxo-chromen-7-yl]oxypropanoyl]piperidine-3-carboxylic acid (Table 3: 40 nM, 120 h); negative=synergistic, positive=antagonistic. The essentials:
as §1

The subject of the next assay is NCIH460. The conditions noted are these: NCIH460 (lung); concentration series of the labelled inhibitor + fixed concentration of IMT (3S)-1-[(2R)-2-[4-(2-chloro-4-fluoro-phenyl)-2-oxo-chromen-7-yl]oxypropanoyl]piperidine-3-carboxylic acid (Table 3: 40 nM, 120 h); negative=synergistic, positive=antagonistic. A digest of the protocol: as §1
For the next assay, the system named is A673. The conditions noted are these: A673 (muscle); concentration series of the labelled inhibitor + fixed concentration of IMT (3S)-1-[(2R)-2-[4-(2-chloro-4-fluoro-phenyl)-2-oxo-chromen-7-yl]oxypropanoyl]piperidine-3-carboxylic acid (Table 3: 40 nM, 120 h); negative=synergistic, positive=antagonistic. A digest of the protocol:
as §1

The next assay concerns JAR. The settings on record: JAR (placenta); concentration series of the labelled inhibitor + fixed concentration of IMT (3S)-1-[(2R)-2-[4-(2-chloro-4-fluoro-phenyl)-2-oxo-chromen-7-yl]oxypropanoyl]piperidine-3-carboxylic acid (Table 3: 40 nM, 120 h); negative=synergistic, positive=antagonistic. A digest of the protocol:
as §1

The subject of the next assay is HELA. The settings on record: HELA (cervix); concentration series of the labelled inhibitor + fixed concentration of IMT (3S)-1-[(2R)-2-[4-(2-chloro-4-fluoro-phenyl)-2-oxo-chromen-7-yl]oxypropanoyl]piperidine-3-carboxylic acid (Table 3: 40 nM, 120 h); negative=synergistic, positive=antagonistic. The essentials:
as §1

The subject of a further assay is SKMEL28. The settings on record: SKMEL28 (skin); concentration series of the labelled inhibitor + fixed concentration of IMT (3S)-1-[(2R)-2-[4-(2-chloro-4-fluoro-phenyl)-2-oxo-chromen-7-yl]oxypropanoyl]piperidine-3-carboxylic acid (Table 3: 40 nM, 120 h); negative=synergistic, positive=antagonistic. A digest of the protocol: as §1
A further assay has as its system BXPC3. The conditions noted are these: BXPC3 (pancreas); concentration series of the labelled inhibitor + fixed concentration of IMT (3S)-1-[(2R)-2-[4-(2-chloro-4-fluoro-phenyl)-2-oxo-chromen-7-yl]oxypropanoyl]piperidine-3-carboxylic acid (Table 3: 40 nM, 120 h); negative=synergistic, positive=antagonistic. A digest of the protocol:
as §1

For another assay, the system named is HT1080. The settings on record: HT1080 (connective tissue); concentration series of the labelled inhibitor + fixed concentration of IMT (3S)-1-[(2R)-2-[4-(2-chloro-4-fluoro-phenyl)-2-oxo-chromen-7-yl]oxypropanoyl]piperidine-3-carboxylic acid (Table 3: 40 nM, 120 h); negative=synergistic, positive=antagonistic. The essentials: as §1
The test system of another assay is SW620. The settings on record: SW620 (colon); concentration series of the labelled inhibitor + fixed concentration of IMT (3S)-1-[(2R)-2-[4-(2-chloro-4-fluoro-phenyl)-2-oxo-chromen-7-yl]oxypropanoyl]piperidine-3-carboxylic acid (Table 3: 40 nM, 120 h); negative=synergistic, positive=antagonistic. The essentials:
as §1

The subject of a further assay is HT29. The settings on record: HT29 (colon); concentration series of the labelled inhibitor + fixed concentration of IMT (3S)-1-[(2R)-2-[4-(2-chloro-4-fluoro-phenyl)-2-oxo-chromen-7-yl]oxypropanoyl]piperidine-3-carboxylic acid (Table 3: 40 nM, 120 h); negative=synergistic, positive=antagonistic. A digest of the protocol: as §1

For `O=C(NOC[C@H](O)CO)c1ccc(F)c(F)c1Nc1ccc(I)cc1F` [PD 0325901, (R)—N-(2,3-dihydroxypropoxy)-3,4-difluoro-2-((2-fluoro-4-iodophenyl)amino)benzamide], the “difference between the calculated combinatorial index (BLISS) and the observed combinatorial effect” value is −0.0555 in the assay with SKOV3; 0.0420 with GRANTA-519; −0.0229 with LOVO; 0.0095 with SKMEL5; 0.1249 with HCT15; −0.0042 with HCT116. For the same compound, the “difference between the calculated combinatorial index (BLISS) and the observed combinatorial effect” value in the assay with NCIH460 is on record as 0.0200; in the assay on A673 it was 0.0281; with JAR, 0.0256; with HELA, −0.2549; with SKMEL28, 0.0303; with BXPC3, 0.0495. The “difference between the calculated combinatorial index (BLISS) and the observed combinatorial effect” value in the assay on HT1080 is listed as 0.0433; in the assay on SW620 it was 0.0316; in the assay with HT29, 0.0786.
For `C[C@H](Nc1ncnc2nc[nH]c12)c1cc2cccc(Cl)c2c(=O)n1-c1ccccc1` [Duvelisib], the “difference between the calculated combinatorial index (BLISS) and the observed combinatorial effect” value in the assay with SKOV3 was 0.0398; in the assay with GRANTA-519 it was 0.0770; with LOVO, −0.0219; with SKMEL5, −0.1083; with HCT15 it was 0.0170; in the assay with HCT116, −0.0213. In addition, the “difference between the calculated combinatorial index (BLISS) and the observed combinatorial effect” value in the assay with NCIH460 is −0.0651; in the assay on A673, 0.0570; in the assay with JAR it was 0.0624; in the assay on HELA, −0.0666; with SKMEL28 it was −0.0412; in the assay on BXPC3, −0.0109. The “difference between the calculated combinatorial index (BLISS) and the observed combinatorial effect” value in the assay on HT1080 is reported as −0.0565; with SW620, −0.0623; in the assay on HT29, 0.0216.
As to `O=C(c1ccc(F)c(F)c1Nc1ccc(I)cc1F)N1CC(O)([C@@H]2CCCCN2)C1` [Cobimetinib], the “difference between the calculated combinatorial index (BLISS) and the observed combinatorial effect” value in the assay with SKOV3 is 0.0499; in the assay on GRANTA-519, −0.0008; in the assay on LOVO it was −0.0754; in the assay with SKMEL5, −0.0872; in the assay on HCT15 it was 0.0539; with HCT116, −0.0279. The “difference between the calculated combinatorial index (BLISS) and the observed combinatorial effect” value with NCIH460 is reported as −0.0338; in the assay on A673, 0.0185; in the assay with JAR it was 0.0139; in the assay on HELA, −0.0068; in the assay on SKMEL28, −0.0040; with BXPC3 it was 0.0204. In addition, the “difference between the calculated combinatorial index (BLISS) and the observed combinatorial effect” value in the assay with HT1080 is reported as −0.0482; with SW620 it was −0.0609; in the assay on HT29 it was 0.0382.
On to `Cn1cnc2c(F)c(Nc3ccc(Br)cc3Cl)c(C(=O)NOCCO)cc21` [Selumetinib], for which the “difference between the calculated combinatorial index (BLISS) and the observed combinatorial effect” value was 0.0622 in the assay with SKOV3; 0.0050 in the assay on GRANTA-519; −0.0877 with LOVO; −0.0968 with SKMEL5; 0.0320 in the assay with HCT15; −0.0774 with HCT116. For the same compound, the “difference between the calculated combinatorial index (BLISS) and the observed combinatorial effect” value with NCIH460 was −0.0276; in the assay on A673, 0.0313; in the assay on JAR it was 0.0045; in the assay with HELA, 0.0054; in the assay on SKMEL28 it was 0.0096; in the assay on BXPC3, −0.0219. In addition, the “difference between the calculated combinatorial index (BLISS) and the observed combinatorial effect” value in the assay with HT1080 is −0.0139; in the assay on SW620, −0.0547; in the assay with HT29 it was 0.0236.
